We go through three compounds from US20100204090A1, “USE OF A PEPTIDE AS A THERAPEUTIC AGENT” (priority 2007, published 2010).

Bridge positions count the residues as written; N and C are the ends. Peptide text beside a SMILES is read from it.

In one data set the test system is HepG2-2.2.15 cells. Kind of data set: Cell viability (dye uptake) in the HBV assay. The class given is cell-based. As to conditions: peptide 10 micrograms per ml, % cell control.
A further data set has as its system HCMV strain AD169. Briefly: HCMV plaque reduction assay in MRC-5 cells. The class given is cell-based, human cytomegalovirus. As to conditions: HCMV AD169 in MRC-5 cells; peptide 10 micrograms per ml; 7-10 days. From the text: Ganciclovir was used as positive control.
A general note: Plaque reduction counts the foci of infection that form in a cell layer.

Data set [1] deals with Primary Human endothelial cells (HUVEC). Kind of data set: Endothelial cell migration assay. It is filed as cell-based. Conditions: peptide 10 micrograms per ml, 22 hours.
The test system of data set [2] is Human Peripheral Blood Mononuclear Cells (PBMC), T cell proliferation. Briefly: T cell proliferation assay (PHA-stimulated PBMC, 3H-thymidine). Conditions: peptide 10 micrograms per ml, 3 days plus 12 hours 3H-thymidine. The class given is cell-based.
Data set [3] concerns Human Peripheral Blood Mononuclear Cells (PBMC), B cell proliferation. Kind of data set: B cell proliferation assay (SAC plus IL-2 stimulated PBMC, 3H-thymidine). The class given is cell-based. Conditions: peptide 10 micrograms per ml, 3 days plus 12 hours 3H-thymidine.
A further data set deals with A549 cells. Kind of data set: Propidium iodide cell cycle assay. As to conditions: peptide 10 micrograms per ml, 24 hours, FACS. It is filed as cell-based, human.
Data set [4] concerns spleen cells of Ovalbumin-immunized Balb/c mice. Briefly: Th1/Th2 cytokine profiling assay (Ovalbumin-restimulated spleen cells, CBA kit). The class given is cell-based, mouse. Conditions: peptide 10 micrograms per ml; Ovalbumin 10 micrograms/ml restimulation; 72 hours.
From the text: The Balb/c mice (originated in 1923, it is a popular strain and is used in many different research disciplines. Also classified as an inbred from the production of 20 or more successive brother-sister matings, the Balb/c mouse is albino and small in size) were immunized on Days 1, 15, and 29 with Ovalbumin (Ovalbumin is the main protein found in egg white, commonly used to stimulate an immunological reaction in test animals) in PBS (5 micrograms/injection). On day 50, spleens of the mice were harvested (3 weeks after last boost with Ovalbumin). […] Thereafter, additional Ovalbumin was added to the cells at 10 micrograms/ml for in vitro restimulation of the cells. 72 hours later, cell supernatants were harvested and assayed using the Becton Dickinson Mouse Th1/Th2 Cytokine CBA Kit. This kit can be used to measure Interleukin-2 (IL-2), Interleukin-4 (IL-4), Interleukin-5 (IL-5), Interferon-γ (IFN-γ), and Tumor Necrosis Factor-α (TNF-α) protein levels in a single sample.
The conditions of data set [5]: human, cells plus peptide only.
For data set [6], the system named is TNF alpha production in PBMC-derived macrophages. Kind of data set: TNF alpha production assay (LPS-stimulated macrophages, ELISA). The class given is cell-based, human. Conditions: peptide 10 micrograms per ml, lipopolysaccharide 200 ng/ml, overnight. From the text: Not stimulated macrophages served as negative background control.
On the technique in general: ELISA stands for enzyme-linked immunosorbent assay.

Data set [7] in a line: Cell viability (dye uptake) in the HBV assay. The class given is cell-based. As to conditions: human, HepG2-2.2.15 cells (stable line containing HBV ayw genome), peptide 10 micrograms per ml, % cell control.
A further data set deals with RAW 264.7 cells. Kind of data set: Phagocytosis assay (Fluorescein-labeled Escherichia coli, flow cytometry). As to conditions: peptide 10 micrograms per ml, 30 min preincubation, 60 min ingestion. The class given is cell-based, mouse. (A flow cytometer gives signals particle by particle.)
The subject of the next data set is HUVEC. Kind of data set: Endothelial tube formation assay. The class given is cell-based, human. As to conditions: peptide 10 micrograms per ml, 20 hours. The text has this: Positive control was vehicle only.
The subject of data set [8] is hepatitis B virus (HBV) ayw strain. Briefly: HBV replication assay in HepG2-2.2.15 cells (secreted HBV DNA, TaqMan PCR). The class given is cell-based. Conditions: peptide 10 micrograms per ml; six days; HBV DNA in supernatant, % virus control.
Data set [9] in a line: Cytotoxicity testing in MRC-5 cells (CellTiter 96). As to conditions: human, MRC-5 cells (embryonal lung fibroblasts).
The test system of another data set is MRC-5 cells. As to conditions: human, 6 days.

With `Nc1ccn([C@@H]2CS[C@H](CO)O2)c(=O)n1` [Compound 3TC, Lamivudine, reference compound], in the data set with HepG2-2.2.15 cells, the “% Cell viability” value was 95.8%.

The viability is a read-out of living cells in per cent, often relative to untreated cells. `CC[C@H](C)[C@@H]1NC(=O)CNC(=O)[C@H](CCCNC(=N)N)NC(=O)CNC(=O)[C@@H]2CSSC[C@H](NC1=O)C(=O)N[C@@H](CCCNC(=N)N)C(=O)N[C@H]1CSSC[C@H](NC(=O)[C@H](CCCNC(=N)N)NC(=O)[C@@H]3CSSC[C@H](NC(=O)[C@H]([C@@H](C)CC)NC1=O)C(=O)NCC(=O)N[C@@H](CCCNC(=N)N)C(=O)NCC(=O)N[C@@H]([C@@H](C)CC)C(=O)N3)C(=O)N[C@@H]([C@@H](C)CC)C(=O)N2` [Retrocyclin-1] (cyclo(GICRCICGRGICRCICGR); disulfide 3-16, 5-14, 7-12 (inferred); ring closure inferred): the “% plaque reduction” value in the data set on HCMV strain AD169 amounted to 25.8%. The “% inhibition of migration” value in [1] came to 8%. Also, the “% of PHA induced control” value in data set [2] was 81.6%. Moreover, the “% of SAC/IL2 induced control” value in data set [3] is given as 85.0%. Further, in the data set with A549 cells, the “Cell cycle analysis G0/G1” value was found to be 55.3, the “Cell cycle analysis G2/M” value was found to be 12.1 and the “Cell cycle analysis S” value stood at 32.6. In [4], the “IFNγ spleen cells; TH1 response (% of control)” value was 137.6 % of control, the “IL-2 spleen cells (% of control)” value is listed as 157.7 % of control, the “IL-4 spleen cells; TH2 response (% of control)” value is 67.1 % of control and the “IL-5 spleen cells; TH2 response (% of control)” value is 80.7 % of control. In addition, in [4], the “TNF-a spleen cells; TH1 response (% of control)” value was 152.5 % of control. Further, in [5], the viability at 10 micrograms per ml is 89.3%. The “% of LPS induction” value in data set [6] was determined as 115.1%. Moreover, the viability at 144 h, 10 micrograms per ml in data set [7] amounted to 78.5%. In the data set with RAW 264.7 cells, the “% of control phagocytosis” value is 79.4%. In addition, the “% inhibition of tube formation” value with HUVEC amounted to 100%. Also, the “% inhibition of HBV replication in HEP G2 cells” value in data set [8] was 72.2%. In data set [9], this compound yielded a viability at 144 h of 100%.

As to `Nc1nc(O)c2ncn(COC(CO)CO)c2n1` [Ganciclovir], the “% Cell viability” value in the data set with MRC-5 cells is recorded as 100%.
